Data published in article PMC10298530, “Synthesis and Anticancer Activity of A-Ring-Modified Derivatives of Dihydrobetulin” (International Journal of Molecular Sciences, 2023).

Experiments:
HEK293 = test: MTT cell viability assay, HEK293; assay type: cell-based; conditions: Homo sapiens; Table S1, HEK293; read-out: IC50 (mean ± SD)
Description: (§1) Blokhin National Medical Research Center of Oncology (the Ministry of Health of the Russian Federation, Moscow).

HBL-100/Dox = test: MTT cell viability assay, HBL-100/Dox; assay type: cell-based, human; conditions: Homo sapiens, HBL-100; read-out: IC50 (mean ± SD)
Protocol: (§2) The cells were cultured in a humidified CO2 incubator (model 460-CE; Thermo Fisher Scientific, Waltham, MA, USA) at +37 °C and 5% CO2.
(§3) The percentage of the viable cells was calculated according to the following equation: cell viability (%) = 100 × (mean absorbance in the treatment group/mean absorbance in the control group). The results were expressed pictorially using Prism 6.0 (GraphPad Software, Boston, MA, USA).

MS = test: MTT cell viability assay, MS; assay type: cell-based, human; conditions: Homo sapiens; Table S1, MS; read-out: IC50 (mean ± SD);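 also: MS is a melanocyte cell line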
Description: as §1

A549 = test: MTT cell viability assay, A549; assay type: cell-based, human; conditions: Homo sapiens; Table S1, A549; read-out: IC50 (mean ± SD)
Description: as §1

HCT116 = test: MTT cell viability assay, HCT116; assay type: cell-based, human; conditions: Homo sapiens, HCT-116; Table S1, HCT116; read-out: IC50 (mean ± SD)
Description: as §1

MCF-7 = test: MTT cell viability assay, MCF-7; assay type: cell-based, human; conditions: Homo sapiens, MCF7; Table S1, MCF-7; read-out: IC50 (mean ± SD)
Description: as §1

HBL-100 = test: MTT cell viability assay, HBL-100; assay type: cell-based, human; conditions: Homo sapiens; Table S1, HBL-100; read-out: IC50 (mean ± SD)
Protocol: as §2, §3

PC-3 = test: MTT cell viability assay, PC-3; assay type: cell-based, human; conditions: Homo sapiens; Table S1, PC-3; read-out: IC50 (mean ± SD)
Description: as §1

RD TE32 = test: MTT cell viability assay, RD TE32; assay type: cell-based, human; conditions: Homo sapiens; Table S1, RD TE32; read-out: IC50 (mean ± SD)
Description: as §1

HEpG2 = test: MTT cell viability assay, HEpG2; assay type: cell-based, human; conditions: Homo sapiens; Table S1, HEpG2; read-out: IC50 (mean ± SD)
Description: as §1

Row | SMILES | IC50 (HEK293) | IC50 (HBL-100/Dox) | IC50 (MS) | IC50 (A549) | IC50 (HCT116) | IC50 (MCF-7) | melting point | IC50 (HBL-100) | IC50 (PC-3) | IC50 (RD TE32) | IC50 (HEpG2)
1 | CC(C)C1CC[C@]2(CO)CC[C@]3(C)C(CCC4[C@@]5(C)C[C@@H](C#N)CC(=O)C5CC[C@]43C)C12 (some centres unmarked) [compound 16, 2-Cyano-28-hydroxy-4-oxo-3,4-seco-3,23-dinor-2,24-cyclolupane] | > 100 µM | > 200 µM | > 100 µM | > 100 µM | > 200 µM | > 100 µM | 166.6 °C | > 100 µM | > 100 µM | > 100 µM | > 100 µM
2 | COC(=O)[C@]12CCC(C(C)C)C1C1CCC3[C@@](C)(CCC#N)C(C(C)=O)CC[C@@]3(C)[C@]1(C)CC2 (some centres unmarked) [compound 21, 2-Cyano-4-oxo-3,4-seco-3,23-dinorlupan-28-oic acid methyl ester] | > 100 µM | > 200 µM | > 100 µM | > 100 µM | > 100 µM | 97.5 ± 4.21 µM | 177.2 °C | > 100 µM | > 100 µM | > 100 µM | > 100 µM
3 | C=C(C=O)C1CC[C@]2(C)C(CCC3C4C(C(C)C)CC[C@]4(COC(=O)c4ccccc4)CC[C@]32C)[C@@]1(C)CCC#N (some centres unmarked) [compound 4, 28-Benzoyloxy-2-cyano-3,4-seco-3-norlup-4(23)-en-24-al] | > 100 µM | > 100 µM | > 100 µM | > 100 µM | > 200 µM | > 200 µM | 176.5 °C | > 100 µM | > 100 µM | > 100 µM | > 100 µM
4 | COC(=O)[C@]12CCC(C(C)C)C1C1CCC3[C@@]4(C)CC(C#N)=C(C)C4CC[C@@]3(C)[C@]1(C)CC2 (some centres unmarked) [compound 23, 2-Cyano-3,4-seco-3,23-dinor-2,4-cyclolup-2(4)-en-28-oic acid methyl ester] | > 100 µM | > 100 µM | > 100 µM | > 200 µM | > 100 µM | 70.2 ± 3.09 µM | 168.5 °C | > 100 µM | > 200 µM | > 100 µM | > 200 µM
5 | C=C1C2CC[C@]3(C)C(CCC4C5C(C(C)C)CC[C@]5(C(=O)OC)CC[C@]43C)[C@@]2(C)C[C@@H](C#N)[C@@H]1O (stereo partly drawn) [compound 11, 2-Cyano-24β-hydroxy-3,4-seco-3-nor-2,24-cyclolup-4(23)-en-28-oic acid methyl ester] | > 200 µM | > 200 µM | > 100 µM | > 100 µM | > 200 µM | > 100 µM | 133.9 °C | 73.3 ± 1.51 µM | > 100 µM | > 200 µM | > 100 µM
6 | CC(=O)C1CC[C@]2(C)C(CCC3C4C(C(C)C)CC[C@]4(COC(=O)c4ccccc4)CC[C@]32C)[C@@]1(C)CCC#N (some centres unmarked) [compound 20, 28-Benzoyloxy-2-cyano-4-oxo-3,4-seco-3,23-dinorlupane] | > 100 µM | > 200 µM | > 100 µM | > 100 µM | > 100 µM | > 100 µM | 185.8 °C | > 200 µM | > 100 µM | > 100 µM | > 100 µM
7 | CC(C)C1CC[C@]2(COC(=O)c3ccccc3)CC[C@]3(C)C(CCC4[C@@](C)(CCC#N)C(C(=O)C(Br)Br)CC[C@]43C)C12 (some centres unmarked) [compound 29, 28-Benzoyloxy-2-cyano-24,24-dibromo-4-oxo-3,4-seco-3,23-dinorlupane] | > 100 µM | > 200 µM | > 100 µM | > 100 µM | > 200 µM | 49 ± 5.33 µM | 107.7 °C | > 100 µM | > 100 µM | 73.2 ± 5.24 µM | > 100 µM
8 | CC(C)C1CC[C@]2(CO)CC[C@]3(C)C(CCC4[C@@]5(C)C[C@@H](C#N)C[C@H](O)C5CC[C@]43C)C12 (stereo partly drawn) [compound 18, 2-Cyano-4β,28-dihydroxy-3,4-seco-3,23-dinor-2,24-cyclolupane] | > 100 µM | > 200 µM | > 100 µM | > 100 µM | > 200 µM | > 100 µM | 205.7 °C | > 100 µM | > 100 µM | > 200 µM | > 100 µM
9 | C=C1C=C(C#N)C[C@@]2(C)C1CC[C@]1(C)C2CCC2C3C(C(C)C)CC[C@]3(CO)CC[C@]21C (some centres unmarked) [compound 8, 2-Cyano-28-hydroxy-3,4-seco-3-nor-2,24-cyclolup-2(24),4(23)-diene] | > 100 µM | > 200 µM | > 100 µM | > 100 µM | > 200 µM | > 100 µM | 196.1 °C | > 100 µM | > 100 µM | > 200 µM | > 100 µM
10 | C=C1C=C(C#N)C[C@@]2(C)C1CC[C@]1(C)C2CCC2C3C(C(C)C)CC[C@]3(C(=O)OC)CC[C@]21C (some centres unmarked) [compound 10, 2-Cyano-3,4-seco-3-nor-2,24-cyclolup-2(24),4(23)-dien-28-oic acid methyl ester] | > 200 µM | > 200 µM | > 100 µM | > 100 µM | > 200 µM | > 100 µM | 76.6 °C | > 100 µM | > 100 µM | > 100 µM | > 100 µM
11 | C=C1C[C@H](C#N)C[C@@]2(C)C1CC[C@]1(C)C2CCC2C3C(C(C)C)CC[C@]3(C(=O)OC)CC[C@]21C (some centres unmarked) [compound 13, 2-Cyano-3,4-seco-3-nor-2,24-cyclolup-4(23)-en-28-oic acid methyl ester] | > 200 µM | > 200 µM | > 100 µM | > 100 µM | > 100 µM | > 100 µM | 177.7 °C | > 100 µM | > 100 µM | > 100 µM | > 100 µM
12 | C=C(CBr)C1CC[C@]2(C)C(CCC3C4C(C(C)C)CC[C@]4(COC(=O)c4ccccc4)CC[C@]32C)[C@@]1(C)CCC#N (some centres unmarked) [compound 6, 28-Benzoyloxy-24-bromo-2-cyano-3,4-seco-3-norlup-4(23)-ene] | > 200 µM | > 200 µM | > 100 µM | > 100 µM | > 200 µM | > 200 µM | 87.9 °C | > 100 µM | > 100 µM | > 200 µM | > 100 µM
13 | COC(=O)[C@]12CCC(C(C)C)C1C1CCC3[C@@]4(C)C[C@@H](C#N)CC(=O)C4CC[C@@]3(C)[C@]1(C)CC2 (some centres unmarked) [compound 17, 2-Cyano-4-oxo-3,4-seco-3,23-dinor-2,24-cyclolup-28-oic acid methyl ester] | > 100 µM | > 200 µM | > 100 µM | > 100 µM | > 100 µM | > 100 µM | 220.8 °C | > 200 µM | > 100 µM | > 100 µM | > 100 µM
14 | C=C(C=O)C1CC[C@]2(C)C(CCC3C4C(C(C)C)CC[C@]4(C(=O)OC)CC[C@]32C)[C@@]1(C)CCC#N (some centres unmarked) [compound 5, 2-Cyano-3,4-seco-3-norlup-4(23)-en-24-al-28-oic acid methyl ester] | > 200 µM | > 100 µM | > 100 µM | > 100 µM | > 200 µM | > 200 µM | 97.3 °C | > 200 µM | > 100 µM | > 100 µM | > 100 µM
15 | C=C(CBr)C1CC[C@]2(C)C(CCC3C4C(C(C)C)CC[C@]4(C(=O)OC)CC[C@]32C)[C@@]1(C)CCC#N (some centres unmarked) [compound 7, 24-Bromo-2-cyano-3,4-seco-3-norlup-4(23)-en-28-oic acid methyl ester] | > 100 µM | > 200 µM | > 100 µM | > 100 µM | > 200 µM | > 100 µM | 72.7 °C | > 200 µM | > 100 µM | > 200 µM | > 100 µM
16 | CC(C)C1CC[C@]2(COC(=O)c3ccccc3)CC[C@]3(C)C(CCC4[C@@](C)(CCC#N)C(C(=O)CBr)CC[C@]43C)C12 (some centres unmarked) [compound 28, 28-Benzoyloxy-24-bromo-2-cyano-4-oxo-3,4-seco-3,23-dinorlupane] | > 100 µM | > 200 µM | > 100 µM | > 100 µM | > 100 µM | 86.1 ± 10.1 µM | 91.6 °C | > 100 µM | > 100 µM | > 100 µM | > 100 µM
